This is an account of results in patent US5616613A, “Platinum(II) complex and malignant tumor treatment agent” (priority 1994, dated 1997).

By T/C is commonly meant the result in the treated group divided by that in the control group, in per cent.

One data set concerns testicular carcinoma. The following applies: cited from earlier work; for effectiveness against testicular carcinoma and the like (in words): in vivo.
Data set [1] relates to cisplatin-resistant L1210 cells. Kind of data set: In vitro cytotoxic effect on cisplatin-resistant mouse leukemia L1210 cells (XTT colorimetric method). It counts as cell-based. The following applies: read-out: 50% cell growth inhibition concentration (IC50), 37° C., 5 days. The procedure: A test of the in vitro cytotoxic effect of compound 15 and cisplatin on cisplatin-resistant mouse leukemia L1210 cells was conducted in the following manner.
1×10^5 cisplatin-resistant L1210 cells were seeded in a 96-well plate at 100 μl per well. About 100 μl of the drugs at graded dilutions was added to each well. Culturing was then performed at 37° C. for 5 days, and the cells were counted by the XTT colorimetric method.

For the next data set, the system named is mouse leukemia L1210. In words: Antitumor activity against L1210 cell-planted mice (T/C value). The following applies: intraperitoneal, CDF1 mice. It counts as in vivo. Here is the method: A portion of 1×10^5 mouse leukemia L1210 cells subcultured in DBA/2 mice were transplanted in the abdominal cavities of CDF1 mice (male, 6 weeks old, 6-10 animals/group). Each of the test compounds was intraperitoneally administered to the mice on the 1st, […] and 9th days after the day of transplantation. Each of the preparations was used after being dissolved in distilled water.
The antitumor activity of the platinum complexes against the L1210 cell-planted mice was evaluated based on the T/C value determined by the following equation. [formula]

For data set [2] the following is noted: prior-art complexes; cited from earlier work.

In the case of `N.N.[Cl][Pt][Cl]` [Cisplatin, cis-diamminedichloroplatinum(II) complex], the “effectiveness against testicular carcinoma and the like (in words)” value in the data set on testicular carcinoma is on record as “very effective”. Further, the “potency when readministered to recurrent patients (in words)” value in the data set on testicular carcinoma is reported as “lowered potency”. Also, in data set [1], the IC50 was determined as 10.7 nM. Besides, the T/C in the data set on mouse leukemia L1210 (0.25 mg/kg) is recorded as 101%; in the data set with mouse leukemia L1210 (0.5 mg/kg) it was 101%; in the data set with mouse leukemia L1210 (1 mg/kg), 106%; with mouse leukemia L1210 (2 mg/kg), 123%; in the data set on mouse leukemia L1210 (4 mg/kg), 160%.
Turning to `O=C(O)c1ccc(C(=O)O)c(C(=O)O)c1` [trimellitic acid], the “stability in aqueous solutions (in words)” value in data set [2] is “poor stability”.
Consider `N.N.O=C([O-])C1(C(=O)[O-])CCC1.[Pt+2]` [carboplatin], for which, in the data set with testicular carcinoma, the “effectiveness against testicular carcinoma and the like (in words)” value was “very effective”; the “potency when readministered to recurrent patients (in words)” value is “lowered potency”.
